Like-named read-outs stand apart in the source and are kept apart here.
Assays:
[1] = system: IL-1-treated human dermal fibroblasts; test: IL-1-induced inflammatory parameters in human dermal fibroblasts; type: cell-based; settings: IL-1beta 10 U/ml, 24 h; for inhibition of IL-1-induced PGE2 / inhibition of IL-1-stimulated IL-6 release / inhibition of IL-1-stimulated IL-8 release: maximal effect, doses up to 25 μM
Experimental: (§1) Cell cultures: Human primary monocytes were extracted from the whole blood of medically healthy volunteers, who provided written informed consent at the local blood bank (University Hospital of Freiburg, Germany), following a standardized protocol (gradient preparation, Lymphocytes separation medium, PAN Biotech, P04-60125, Aidenbach, Germany) using completely endotoxin-free cultivation. Using 50 ml tubes, 25 ml Pancoll was loaded with 25 ml of blood (buffy coats). The gradient was established by centrifugation at 1800 rpm, 20° C. for 40 min with slow acceleration and deceleration. Peripheral blood mononuclear cells in the interphase were carefully removed and re-suspended in 50 ml pre-warmed phosphate-buffered saline (PBS) (Pan Biotech, P04-36500), followed by centrifugation for 10 min at 1600 rpm and 20° C. The supernatant was discarded and the pellet washed in 50 ml PBS and centrifuged as described above. The pellet was then re-suspended in 50 ml RPMI-1640 low-endotoxin medium supplemented with 10% human serum (Hexcell, Berlin, Germany, SP2080). After counting the number of cells in a particle counter (Euro Diagnostics, Krefeld, Germany), cells were seeded in 24-well plates for enzyme linked immunosorbent assay (ELISA) (2.2 mio. cells/well) or 96-well plates at a density of 2×10^4 cells/well for cell viability testing, and incubated at 37° C. with 5% CO2. The medium and the non-adherent cells (lymphocytes) were removed and fresh RPMI-1640 medium containing 1% human serum added. Enriched monocytes were then ready to be used for the experiments. Primary human fibroblasts and HaCat keratinocytes were obtained from the Uniklinik Freiburg. All cells were maintained in supplemented DMEM (Invitrogen, Life-Technologies, Darmstadt, Germany) medium containing 10% FBS (Bio&Sell, Feucht, Germany) and 1% antibiotics penicillin/streptomycin (from Invitrogen, DMEM complete medium) at 37° C. in a humidified atmosphere of 5% CO2.
Determination of inflammatory molecules in fibroblasts: Primary human fibroblasts were cultivated as described above and seeded (500000 cells/well) in 24-well plates. Cells were incubated with IL-1beta (Roche, Mannheim, Germany, 10 U/ml) in absence and presence of the cannabinoids (5 doses, n=3) for 24 h. Unstimulated cells served as a negative control. 24 h after cell stimulation, supernatants were removed, centrifuged and investigated for IL-6, PGE2, and IL-8 concentrations by ELISAs according to the manufacturer's protocol (PGE2 from Cayman/Biomol, Hamburg, Germany; IL-6, and IL-8 from Immuno-tools, Frisoythe, Germany). The respective extinction is determined using a 96-well plate reader (Berthold, Offenburg, Germany).

[2] = system: LPS-treated human monocytes; test: LPS-induced inflammatory parameters in human monocytes; type: cell-based; settings: for inhibition at 25 µM: Homo sapiens, Monocyte, maximal effect at 25 μM; for inhibition of LPS-stimulated TNFalpha release / inhibition of LPS-induced IL-6: maximal effect, doses up to 25 μM
Experimental: as §1
Measurement of cytokines and PGE2 in primary human monocytes: Cells were incubated with LPS (Sigma-Aldrich, Taufkirchen, Germany, 10 ng/ml) for 24 h. The cannabinoids (5 doses) were added 30 min before LPS treatment. After 24 h, supernatants were removed, centrifuged and investigated for IL-1beta, IL-8, IL-6, TNFalpha, MMP9, isoprostane, and PGE2 concentrations in EIAs (PGE2 and isoprostane, from Cayman/Biomol, Hamburg, Germany) or ELISAs (IL-1beta, Hiss, Freiburg, Germany; TNFalpha, IL-6 and IL-8, ImmunoTools, Frysoithe, Germany, MMP9, Biotechne, Wiesbaden, Germany) using manufacturer's protocol. The respective extinction was determined using a 96-well plate reader (Berthold, Offenburg, Germany). Each dose was analyzed 4 times in two buffy coats from 2 different donors (2 buffy coats used from 2 different healthy blood donors with final n=4 values).

[3] = system: PolyIC-treated human keratinocytes (HaCat); test: Poly I:C-induced proteases in human HaCat keratinocytes; type: cell-based; settings: Poly I:C 10 μg/ml, 24 h; for inhibition at 25 µM: Homo sapiens, HaCaT; for inhibition of Poly I:C-stimulated TIMP1: maximal effect, doses up to 25 μM
Experimental: as §1
Determination of MMPs and TIMPs in keratinocytes: Keratinocytes (HaCat) were cultivated as described above. Cells were seeded in 24-well plates incubated with Poly I:C (InvivoGen, San Diego, Calif.; USA, 10 μg/ml) in absence and presence of the cannabinoids (5 doses, n=3) for 24 h. Unstimulated cells served as a negative control. 24 h after cell stimulation, supernatants were removed, centrifuged and investigated for MMP1, MMP9 and TIMP1 concentrations by ELISAs according to the manufacturer's protocol (from Biotechne, Wiesbaden, Germany). The respective extinction was determined using a 96-well plate reader (Berthold, Offenburg, Germany).

CB1 receptor = CB1 receptor (Homo sapiens (Human), UniProt P21554); test: In vitro binding to CB1 receptor, [3H]-CP55940 radioligand displacement; settings: for CB1/CB2 selectivity: ratio of CB1-Ki to CB2-Ki
Experimental: (§2) Compounds with an expected profile as CB1 and/or CB2 receptor ligands were evaluated by competition studies that allow determining the affinity of these compounds (Ki values) for both receptors against a classical cannabinoid ligand. The competition studies were conducted with membranes transfected with either CB1 or CB2 receptors. For stock solutions the compounds were dissolved at concentrations of 50 and 100 mM and stored at −20° C.
(§3) 96-well plates and the tubes necessary for the experiment were siliconized with Sigmacote (Sigma). Membranes were resuspended in the corresponding buffer and were incubated with the radioligand and each compound for 90 min at 30° C. Non-specific binding was determined with 10 μM WIN55212-2 and 100% binding of the radioligand to the membrane was determined by its incubation with membrane and without any compound. Filtration was performed by a Harvester®filtermate (Perkin-Elmer) with Filtermat A GF/C filters pretreated with polyethylenimine 0.05%. After filtering, the filter was washed nine times with binding buffer, dried and a melt-on scintillation sheet (Meltilex™ A, Perkin Elmer) was melted onto it. Then, radioactivity was quantified by a liquid scintillation spectrophotometer (Wallac MicroBeta Trilux, Perkin-Elmer).
(§4) Radioligand displacement assays were used to evaluate the affinity of the new compounds using membranes from cells (HEK293EBNA) transfected with the CB1 or the CB2 receptors and [^3H]-CP55940 as radioligand. The evaluation of the compounds was conducted in two phases. The first phase consisted in a simple screening with a unique and high concentration of each compound (40 μM). The data was collected from at least three experiments performed in triplicate. […] This consisted of a competition study with [^3H]CP55940 (0.10 nM for CB1 and 0.15 nM for CB2) and different concentrations of the selected compounds (10^−4-10^−11M). The data was analyzed, by using GraphPad Prism® version 5.01 (GraphPad Software Inc., San Diego, Calif., USA), for the calculation of Ki values expressed as mean±SEM of at least three experiments performed in triplicate for each point.

CB2 receptor [4] = biological target: T1, CB2 receptor (Homo sapiens (Human), UniProt P34972); test: In vitro binding to CB2 receptor, [3H]-CP55940 radioligand displacement
Experimental: as §2, §3, §4

primary human monocytes = test: Cell viability in human monocytes (Alamar Blue); type: cell-based; settings: 24 h
Experimental: Cell cultures: Human primary monocytes were extracted from the whole blood of medically healthy volunteers, who provided written informed consent at the local blood bank (University Hospital of Freiburg, Germany), following a standardized protocol (gradient preparation, Lymphocytes separation medium, PAN Biotech, P04-60125, Aidenbach, Germany) using completely endotoxin-free cultivation. Using 50 ml tubes, 25 ml Pancoll was loaded with 25 ml of blood (buffy coats). The gradient was established by centrifugation at 1800 rpm, 20° C. for 40 min with slow acceleration and deceleration. Peripheral blood mononuclear cells in the interphase were carefully removed and re-suspended in 50 ml pre-warmed phosphate-buffered saline (PBS) (Pan Biotech, P04-36500), followed by centrifugation for 10 min at 1600 rpm and 20° C. The supernatant was discarded and the pellet washed in 50 ml PBS and centrifuged as described above. […] Enriched monocytes were then ready to be used for the experiments. […]
Cell viability: Cells were incubated with the cannabinoids (3 doses, n=4) for 24 h. Cytotoxicity was analyzed by Alamar Blue staining (formazan). […] The plate was then incubated at 37° C. for 2 h in a humidified 5% CO2 atmosphere, and the color reaction determined using a 96-well plate reader (Berthold, Offenburg, Germany, excitation 544 nm, emission 590 nm). […]

[5] = system: IL-1-treated human dermal fibroblasts; test: IL-1-induced inflammatory parameters in human dermal fibroblasts; type: cell-based; settings: 24 h
CB2 receptor [6] = biological target: T1, CB2 receptor; test: CB2 antagonistic activity, CRE-Luc assay in HEK 293T-CB2 cells; type: cell-based; settings: WIN 55,212-2 repression of forskolin-induced CRE-Luc
Experimental: HEK 293T-CB1 and HEK 293T-CB2 cells (stably transfected with CB1 and CB2 cDNAs) (10^5/ml) were incubated in 24-well plates and transiently transfected with 0.5 μg/ml of the plasmid CRE-Luc that contains six consensus cAMP responsive elements (CRE) linked to firefly luciferase. Transient transfections were performed with Rotifect (Carl Roth GmbH, Karlsruhe, Germany) according to the manufacturer's instructions and harvested 24 h after transfection.
For CB2 antagonistic activity in cells the potential repression of Forskolin-induced CRE-luc inhibition induced by the compounds was analyzed.
After six hours of stimulation the cells were lysed (in 25 mM Tris-phosphate pH 7.8, 8 mM MgCl2, 1 mM DTT, 1% Triton X-100, and 7% glycerol) and luciferase activity was measured using an Autolumat LB 9501 (Berthold Technologies, Bad Wildbad, Germany) following the instructions of the luciferase assay kit (Promega, Madison, Wis.). The background obtained with the lysis buffer was subtracted in each experimental value, and the specific transactivation expressed as fold induction over basal levels (CRE-Luc).
The potential antagonistic activities of the compounds on the CB2 receptor were studied in the following. […] The negative control (untreated cells, 0% activation) is not listed.

[7] = read-out: inhibition of Poly I:C-induced MMP1
[8] = read-out: inhibition of Poly I:C-stimulated MMP9
[9] = LPS 10 ng/ml, 24 h, read-out: inhibition of LPS-stimulated PGE2 release

Compound	doses inhibiting IL-1-induced PGE2 [1] [µM]	doses inhibiting IL-1-stimulated IL-6 release [1] [µM]	doses inhibiting IL-1-stimulated IL-8 release [1] [µM]	inhibition of IL-1-induced PGE2 [1]	inhibition of IL-1-stimulated IL-6 release [1]	inhibition of IL-1-stimulated IL-8 release [1]	doses increasing LPS-mediated IL-1beta ([2]; LPS 10 ng/ml, 24 h) [µM]	doses inhibiting LPS-induced IL-6 ([2]; LPS 10 ng/ml, 24 h) [µM]	doses inhibiting LPS-induced IL-8 ([2]; LPS 10 ng/ml, 24 h) [µM]	inhibition at 25 µM [3, 7] [%]	inhibition at 25 µM [3, 8] [%]	inhibition of Poly I:C-stimulated TIMP1 [3]	Ki (CB1 receptor) [nM]	CB1/CB2 selectivity (CB1 receptor)	Ki (CB2 receptor [4]) [nM]	inhibition at 25 µM [2, 9] [%]	doses inhibiting LPS-stimulated PGE2 release ([2]; LPS 10 ng/ml, 24 h) [µM]	doses inhibiting LPS-stimulated TNFalpha release ([2]; LPS 10 ng/ml, 24 h) [µM]	inhibition of LPS-stimulated TNFalpha release ([2]; LPS 10 ng/ml, 24 h)	doses affecting cell viability (primary human monocytes) [µM]	also measured
C=C(C)[C@H]1CCC(C)=C[C@@H]1c1c(O)cc(CCCCC)c(C(=O)OCC(O)CCC)c1O (single isomer, unassigned; (+)) [(+)-CBD-HPE, (+)-Cannabidiol hydroxypentylester]	25	≥ 10	≥ 10	50%	95%	95%	25	≥ 10	25	20	40	60%	3.1	3.9	0.8	–	–	–	–	–	doses inhibiting LPS-stimulated MMP9 ([2]; LPS 10 ng/ml, 24 h): 25 µM
C=C(C)[C@H]1CCC(C)=C[C@@H]1c1c(O)cc(CCCCC)cc1O [(+)-CBD, (+)-Cannabidiol]	–	≥ 0.1	≥ 0.1	more than 80%	more than 90%	more than 90%	–	–	25	~40	~40	~70%	–	–	–	~80	≥ 1	≥ 0.1	around 80%	≥ 25	doses inhibiting Poly I:C-induced MMP1 [3]: 25 µM; doses inhibiting Poly I:C-stimulated MMP9 [3]: ≥ 5 µM; doses inhibiting Poly I:C-stimulated TIMP1 [3]: ≥ 5 µM
C=C(C)[C@H]1CCC(C)=C[C@@H]1c1c(O)cc(CCCCC)c(C(=O)OCCO)c1O [(+)-CBD-GE, (+)-Cannabidiol glycolester]	≥ 5	≥ 5	≥ 5	approx. 80%	around 95%	around 95%	–	≥ 0.1	–	–	30 to 50	30-50%	–	–	12.9	~80	≥ 0.1	≥ 0.1	approx. 40%	–	inhibition at 25 µM ([2]; LPS 10 ng/ml, 24 h, read-out: inhibition of LPS-stimulated IL-1 release): ~40%; inhibition at 25 µM ([2]; LPS 10 ng/ml, 24 h, read-out: inhibition of LPS-stimulated isoprostane release): ~40%; doses inhibiting LPS-stimulated IL-1 release ([2]; LPS 10 ng/ml, 24 h): ≥ 0.1 µM; doses inhibiting LPS-stimulated isoprostane release ([2]; LPS 10 ng/ml, 24 h): ≥ 0.1 µM; inhibition of LPS-induced IL-6 ([2]; LPS 10 ng/ml, 24 h): around 80%; enhancement of LPS-mediated MMP9, more than LPS values ([2]; doses of 5-25 μM): 20-60%
C=C(C)[C@H]1CCC(C)=C[C@@H]1c1c(O)cc(CCCCC)c(C(=O)OC)c1O [(+)-CBD-ME, (+)-Cannabidiol methylester]	–	–	–	–	–	–	25	–	–	–	–	40%	345	12.3	28	–	–	–	around 20%	–	doses increasing LPS-induced IL-8 ([2]; LPS 10 ng/ml, 24 h): 5 to 25 µM; inhibition of LPS-induced IL-6 ([2]; LPS 10 ng/ml, 24 h): around 20%; dose that seems to be toxic in fibroblasts [5]: 25 µM
C=C(C)[C@H]1CCC(C)=C[C@@H]1c1c(O)cc(CCC)cc1O [(+)-CBDV, (+)-Cannabidivarin]	–	≥ 5	≥ 5	more than 80%	–	–	–	–	–	–	–	–	–	–	33.1	–	–	–	–	≥ 25	doses enhancing Poly I:C-stimulated MMP1 [3]: 25 µM
COc1ccc(C(=O)c2c(C)n(CCN3CCOCC3)c3cc(I)ccc23)cc1 [AM630]	–	–	–	–	–	–	–	–	–	–	–	–	–	–	–	–	–	–	–	–	CB2 antagonistic activity (CB2 receptor [6]): prevented

From patent US11485700B2, “Synthesis of (+)-cannabinoids and their therapeutic effects” (SYMRISE AG, priority 2018, dated 2022)
